Measured values from PubChem BioAssay (NCI).
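Values below derive from 48-hour exposures of cells grown in 96-well plates, with endpoints linearly interpolated between the two concentrations bracketing the appropriate inhibition level. TGI: total growth inhibition.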

Columns and labels:
Experiment in all cases: growth of human tumour cells (NCI), 48 h
786-0 renal = system: 786-0 renal
A549 NSCLC = system: A549 NSCLC
ACHN renal = system: ACHN renal
CAKI-1 renal = system: CAKI-1 renal
CCRF-CEM leukemia = system: CCRF-CEM leukemia
COLO 205 colon = system: COLO 205 colon
DLD-1 colon = system: DLD-1 colon
DMS 114 small cell lung = system: DMS 114 small cell lung
DMS 273 small cell lung = system: DMS 273 small cell lung
EKVX NSCLC = system: EKVX NSCLC
HCC-2998 colon = system: HCC-2998 colon
HCT-116 colon = system: HCT-116 colon
HCT-15 colon = system: HCT-15 colon
HL-60(TB) leukemia = system: HL-60(TB) leukemia
HOP-62 NSCLC = system: HOP-62 NSCLC
HT29 colon = system: HT29 colon
K-562 leukemia = system: K-562 leukemia
KM12 colon = system: KM12 colon
LOX IMVI melanoma = system: LOX IMVI melanoma
M19-MEL melanoma = system: M19-MEL melanoma
MALME-3M melanoma = system: MALME-3M melanoma
MOLT-4 leukemia = system: MOLT-4 leukemia
NCI-H226 lung = system: NCI-H226 lung
NCI-H23 lung = system: NCI-H23 lung
NCI-H460 lung = system: NCI-H460 lung
NCI-H522 lung = system: NCI-H522 lung
OVCAR-3 ovarian = system: OVCAR-3 ovarian
OVCAR-4 ovarian = system: OVCAR-4 ovarian
OVCAR-5 ovarian = system: OVCAR-5 ovarian
OVCAR-8 ovarian = system: OVCAR-8 ovarian
RPMI-8226 leukemia = system: RPMI-8226 leukemia
SF-268 CNS = system: SF-268 CNS
SF-295 CNS = system: SF-295 CNS
SF-539 CNS = system: SF-539 CNS
SK-MEL-2 melanoma = system: SK-MEL-2 melanoma
SK-MEL-28 melanoma = system: SK-MEL-28 melanoma
SK-MEL-5 melanoma = system: SK-MEL-5 melanoma
SN12C renal = system: SN12C renal
SNB-19 CNS = system: SNB-19 CNS
SNB-75 CNS = system: SNB-75 CNS
SNB-78 CNS = system: SNB-78 CNS
SR leukemia = system: SR leukemia
SW-620 colon = system: SW-620 colon
TK-10 renal = system: TK-10 renal
U251 CNS = system: U251 CNS
UACC-257 melanoma = system: UACC-257 melanoma
UO-31 renal = system: UO-31 renal
XF 498 CNS = system: XF 498 CNS
A498 renal = system: A498 renal
BT-549 breast = system: BT-549 breast
DU-145 prostate = system: DU-145 prostate
HOP-92 NSCLC = system: HOP-92 NSCLC
HS 578T breast = system: HS 578T breast
IGROV1 ovarian = system: IGROV1 ovarian
M14 melanoma = system: M14 melanoma
MCF7 breast = system: MCF7 breast
MDA-MB-231 breast = system: MDA-MB-231 breast
MDA-MB-435 = system: MDA-MB-435
MDA-N = system: MDA-N
NCI/ADR-RES ovarian = system: NCI/ADR-RES ovarian
PC-3 prostate = system: PC-3 prostate
RXF 393 renal = system: RXF 393 renal
SK-OV-3 ovarian = system: SK-OV-3 ovarian
T-47D breast = system: T-47D breast
UACC-62 melanoma = system: UACC-62 melanoma
HOP-18 NSCLC = system: HOP-18 NSCLC
KM20L2 colon = system: KM20L2 colon

Measured: TGI

CC(=O)Nc1ccc(C(=O)N2N=C(C)/C(=C/c3ccc(O)cc3)C2=O)cc1
not listed: A498 renal | BT-549 breast | DU-145 prostate | HOP-92 NSCLC | HS 578T breast | IGROV1 ovarian | M14 melanoma | MCF7 breast | MDA-MB-231 breast | MDA-MB-435 | MDA-N | NCI/ADR-RES ovarian | PC-3 prostate | RXF 393 renal | SK-OV-3 ovarian | T-47D breast | UACC-62 melanoma | HOP-18 NSCLC | KM20L2 colon
> 100 µM: all other assays above

Cc1ccc(/C=C2\CN(C)CC3C2=NC(=S)NC3c2ccc(C)cc2)cc1 (centres undefined)
> 71.7 µM: COLO 205 colon
> 40.3 µM: EKVX NSCLC
96.9 µM: T-47D breast
> 31.1 µM: HOP-92 NSCLC
33.4 µM: HCC-2998 colon
56 µM: MOLT-4 leukemia
54.5 µM: CCRF-CEM leukemia
> 80.1 µM: IGROV1 ovarian
80.5 µM: MDA-N
45.1 µM: MDA-MB-435
> 87.4 µM: U251 CNS
> 87.1 µM: RXF 393 renal
not listed: DLD-1 colon | DMS 114 small cell lung | DMS 273 small cell lung | M19-MEL melanoma | SNB-78 CNS | XF 498 CNS | HOP-18 NSCLC | KM20L2 colon
> 100 µM: all other assays above

C[C@@]12CCCC(=O)N1[C@@H](CO)C(c1ccccc1)O2 (some centres undefined)
not listed: CCRF-CEM leukemia | HCC-2998 colon | HL-60(TB) leukemia | MOLT-4 leukemia | NCI-H226 lung | NCI-H522 lung | SR leukemia | UO-31 renal | BT-549 breast | DU-145 prostate | HS 578T breast | M14 melanoma | MCF7 breast | MDA-MB-231 breast | MDA-MB-435 | MDA-N | NCI/ADR-RES ovarian | PC-3 prostate | SK-OV-3 ovarian | T-47D breast
> 100 µM: all other assays above
